# In US4497806A, “Triorganotin compounds, antifungal and antibacterial compositions containing same, and method of using same” (priority 1983, dated 1985):
# What was measured:
# Staphylococcus aureus = assay: Antibacterial activity, agar growth inhibition; type: cell-based; set-up: key to growth inhibition: -: no inhibition of growth; +: partial inhibition; 2+: complete inhibition; details: Gram-positive, 24 hours at 37° C.
# Procedure: The antibacterial activity of Compounds A-E was investigated by means of incorporating the compounds into sterile tryptic soy agar (Difco) at levels of 100, 10, and 1 μg/ml. The agar was also […] with a 1:100 dilution of an 18-hour old culture of the desired bacterial species in sterile distilled water. The plates were incubated for 24 hours at 37° C. with each bacterial strain. Observations of bacterial growth inhibition were made following the appropriate incubation period.
# (§1) A solvent control was included in all evaluations, as were growth controls for all bacteria species.
# Comparative compounds 1-5 above were employed for comparison purposes. These compounds were tested for antibacterial activity in the same manner as the triorganotin 5-nitro-2-furoates of the present invention.
# (§2) All of the bacteria tested were obtained from the culture collection of the Department of Biological Sciences, St. John's University.
# The ability of Compound B to inhibit the growth of other Gram-positive bacteria, using the same test procedures as described for the antibacterial activity determined in Table III above, is illustrated in Table IV below.
# [1] = system: Myrothecium verrucaria (ATCC 9095); assay: Antifungal activity, agar plate growth inhibition; type: cell-based; details: 14 days
# Procedure: (§3) Dilutions of the sterile solutions were prepared and added to liquified potato dextrose agar (Difco) to yield final concentrations of 100, 10 and 1 μg/ml. The agar, containing the appropriate organotin compound, was poured into sterile petri dishes and allowed to solidify over night. The agar surface was inoculated centrally with a 2 mm^2 portion of the growth from a ten-day-old culture of each fungus of the group consisting of Aspergillus niger, Chaetomium globosum, Cladosporium carpophilum, Fusarium moniliforme, Myrotheium verrucaria, Penicillium notatum, Rhizopus stolonifer, Trichoderma viride and Trichophyton mentagrophytes, or from a two-day-old culture of Saccharomyces cerevisiae. Inoculated plates were incubated for 14 days and observations of growth inhibition were made by measuring the diameters of the colonies present on the agar surface.
# (§4) A solvent was included in all evaluations, as were growth controls for all fungal species.
# (§5) The following compounds were tested for comparative purposes: [drawing 6] These compounds were tested for antifungal activity in the same manner as the triorganotin 5-nitro-2-furoates of the present invention.
# [2] = system: Rhizopus stolonifer (ATCC 10404); assay: Antifungal activity, agar plate growth inhibition; type: cell-based; details: 14 days
# Procedure: as §3, §4, §5
# [3] = system: Chaetomium globosum (ATCC 6205); assay: Antifungal activity, agar plate growth inhibition; type: cell-based; details: 14 days
# Procedure: as §3, §4, §5
# [4] = system: Fusarium moniliforme (ATCC 10052); assay: Antifungal activity, agar plate growth inhibition; type: cell-based; details: 14 days
# Procedure: as §3, §4, §5
# [5] = system: Trichoderma viride (ATCC 8678); assay: Antifungal activity, agar plate growth inhibition; type: cell-based; details: 14 days
# Procedure: as §3, §4, §5
# [6] = system: Aspergillus niger (ATCC 12845); assay: Antifungal activity, agar plate growth inhibition; type: cell-based; details: 14 days
# Procedure: as §3, §4, §5
# [7] = system: Penicillium notatum (ATCC 9179); assay: Antifungal activity, agar plate growth inhibition; type: cell-based; details: for growth inhibition: 14 days
# Procedure: as §3, §4, §5
# [8] = system: Saccharomyces cerevisiae (ATCC 9896); assay: Antifungal activity, agar plate growth inhibition; type: cell-based; details: 14 days
# Procedure: as §3, §4, §5
# [9] = system: Trichophyton mentagrophytes (ATCC 9129); assay: Antifungal activity, agar plate growth inhibition; type: cell-based; details: 14 days
# Procedure: as §3, §4, §5
# Escherichia coli = assay: Antibacterial activity, agar growth inhibition; type: cell-based; details: for growth inhibition: Gram-negative, 24 hours at 37° C.
# Procedure: (§6) The agar was also needed with a 1:100 dilution of an 18-hour old culture of the desired bacterial species in sterile distilled water. The plates were incubated for 24 hours at 37° C. with each bacterial strain. Observations of bacterial growth inhibition were made following the appropriate incubation period.
# as §1
# (§7) These compounds were tested for antibacterial activity in the same manner as the triorganotin 5-nitro-2-furoates of the present invention.
# as §2
# Pseudomonas aeruginosa = assay: Antibacterial activity, agar growth inhibition; type: cell-based; details: for growth inhibition: Gram-negative, 24 hours at 37° C.
# Procedure: as §6, §1, §7, §2
# [10] = system: Cladosporium carpophilium (ATCC 12117); assay: Antifungal activity, agar plate growth inhibition; type: cell-based, Cladosporium carpophilum; details: for growth inhibition: 14 days
# Procedure: as §3, §4, §5
substance,measurement,setting,value
"Tri(2-phenyl-2,2-dimethylethyl)tin 5-nitro-2-furoate [Compound D]",growth inhibition,Staphylococcus aureus; 1 μg/ml,-
same,growth inhibition,[1]; 1 μg/ml,-
same,growth inhibition,[1]; 10 μg/ml,+
same,growth inhibition,[1]; 100 μg/ml,+
same,growth inhibition,[2]; 1 μg/ml,-
same,growth inhibition,[2]; 10 μg/ml,-
same,growth inhibition,[2]; 100 μg/ml,-
same,growth inhibition,[3]; 1 μg/ml,-
same,growth inhibition,[3]; 10 μg/ml,+
same,growth inhibition,[3]; 100 μg/ml,+
same,growth inhibition,[4]; 1 μg/ml,-
same,growth inhibition,[4]; 10 μg/ml,-
same,growth inhibition,[4]; 100 μg/ml,-
same,growth inhibition,[5]; 1 μg/ml,-
same,growth inhibition,[5]; 10 μg/ml,-
same,growth inhibition,[5]; 100 μg/ml,-
same,growth inhibition,[6]; 1 μg/ml,-
same,growth inhibition,[6]; 10 μg/ml,-
same,growth inhibition,[6]; 100 μg/ml,-
same,growth inhibition,[7]; 1 μg/ml,-
same,growth inhibition,[7]; 10 μg/ml,+
same,growth inhibition,[7]; 100 μg/ml,+
same,growth inhibition,[8]; 1 μg/ml,-
same,growth inhibition,[8]; 10 μg/ml,-
same,growth inhibition,[8]; 100 μg/ml,-
same,growth inhibition,[9]; 1 μg/ml,+
same,growth inhibition,[9]; 10 μg/ml,+
same,growth inhibition,[9]; 100 μg/ml,+
same,growth inhibition,Escherichia coli; 1 μg/ml,-
same,growth inhibition,Escherichia coli; 10 μg/ml,-
same,growth inhibition,Escherichia coli; 100 μg/ml,-
same,growth inhibition,Pseudomonas aeruginosa; 1 μg/ml,-
same,growth inhibition,Pseudomonas aeruginosa; 10 μg/ml,-
same,growth inhibition,Pseudomonas aeruginosa; 100 μg/ml,-
same,growth inhibition,[10]; 1 μg/ml,-
same,growth inhibition,[10]; 10 μg/ml,-
same,growth inhibition,[10]; 100 μg/ml,-
Tricyclohexyltin 5-nitro-2-furoate [Compound C],growth inhibition,[1]; 1 μg/ml,+
same,growth inhibition,[1]; 10 μg/ml,+
same,growth inhibition,[1]; 100 μg/ml,+
same,growth inhibition,[2]; 1 μg/ml,-
same,growth inhibition,[2]; 10 μg/ml,+
same,growth inhibition,[2]; 100 μg/ml,+
same,growth inhibition,[3]; 1 μg/ml,+
same,growth inhibition,[3]; 10 μg/ml,+
same,growth inhibition,[3]; 100 μg/ml,+
same,growth inhibition,[4]; 1 μg/ml,+
same,growth inhibition,[4]; 10 μg/ml,+
same,growth inhibition,[4]; 100 μg/ml,+
same,growth inhibition,[5]; 1 μg/ml,+
same,growth inhibition,[5]; 10 μg/ml,+
same,growth inhibition,[5]; 100 μg/ml,+
same,growth inhibition,[6]; 1 μg/ml,+
same,growth inhibition,[6]; 10 μg/ml,+
same,growth inhibition,[6]; 100 μg/ml,+
same,growth inhibition,[7]; 1 μg/ml,+
same,growth inhibition,[7]; 10 μg/ml,+
same,growth inhibition,[7]; 100 μg/ml,2+
same,growth inhibition,[8]; 1 μg/ml,-
same,growth inhibition,[8]; 10 μg/ml,-
same,growth inhibition,[8]; 100 μg/ml,-
same,growth inhibition,[9]; 1 μg/ml,+
same,growth inhibition,[9]; 10 μg/ml,+
same,growth inhibition,[9]; 100 μg/ml,+
same,growth inhibition,Escherichia coli; 1 μg/ml,-
same,growth inhibition,Escherichia coli; 10 μg/ml,-
same,growth inhibition,Escherichia coli; 100 μg/ml,-
same,growth inhibition,Pseudomonas aeruginosa; 1 μg/ml,-
same,growth inhibition,Pseudomonas aeruginosa; 10 μg/ml,-
same,growth inhibition,Pseudomonas aeruginosa; 100 μg/ml,-
same,growth inhibition,[10]; 1 μg/ml,+
same,growth inhibition,[10]; 10 μg/ml,+
same,growth inhibition,[10]; 100 μg/ml,+
Trimethyltin 5-nitro-2-furoate [Compound E],growth inhibition,Staphylococcus aureus; 1 μg/ml,-
same,growth inhibition,Staphylococcus aureus; 10 μg/ml,-
same,growth inhibition,[1]; 1 μg/ml,+
same,growth inhibition,[1]; 10 μg/ml,+
same,growth inhibition,[1]; 100 μg/ml,2+
same,growth inhibition,[2]; 1 μg/ml,+
same,growth inhibition,[2]; 10 μg/ml,+
same,growth inhibition,[2]; 100 μg/ml,+
same,growth inhibition,[3]; 1 μg/ml,-
same,growth inhibition,[3]; 10 μg/ml,+
same,growth inhibition,[3]; 100 μg/ml,+
same,growth inhibition,[4]; 1 μg/ml,-
same,growth inhibition,[4]; 10 μg/ml,+
same,growth inhibition,[4]; 100 μg/ml,+
same,growth inhibition,[5]; 1 μg/ml,+
same,growth inhibition,[5]; 10 μg/ml,+
same,growth inhibition,[5]; 100 μg/ml,+
same,growth inhibition,[6]; 1 μg/ml,-
same,growth inhibition,[6]; 10 μg/ml,+
same,growth inhibition,[6]; 100 μg/ml,+
same,growth inhibition,[7]; 1 μg/ml,-
same,growth inhibition,[7]; 10 μg/ml,+
same,growth inhibition (in words),[7]; 100 μg/ml,completely inhibited
same,growth inhibition,[7]; 100 μg/ml,2+
same,growth inhibition,[8]; 1 μg/ml,-
same,growth inhibition,[8]; 10 μg/ml,-
same,growth inhibition,[8]; 100 μg/ml,-
same,growth inhibition,[9]; 1 μg/ml,+
same,growth inhibition,[9]; 10 μg/ml,+
same,growth inhibition,[9]; 100 μg/ml,+
same,activity towards the Gram-negative bacterium (in words),Escherichia coli,showed activity
same,growth inhibition (in words),Escherichia coli; 100 μg/ml,completely inhibited
same,growth inhibition,Escherichia coli; 1 μg/ml,-
same,growth inhibition,Escherichia coli; 10 μg/ml,-
same,activity towards the Gram-negative bacterium (in words),Pseudomonas aeruginosa,showed activity
same,growth inhibition,Pseudomonas aeruginosa; 1 μg/ml,-
same,growth inhibition,Pseudomonas aeruginosa; 10 μg/ml,-
same,growth inhibition,[10]; 1 μg/ml,+
same,growth inhibition (in words),[10]; 10 μg/ml,completely inhibited
same,growth inhibition,[10]; 10 μg/ml,2+
same,growth inhibition,[10]; 100 μg/ml,2+
